Laboratory results taken from PMC4233638, “Proanthocyanidin synthesis in Theobroma cacao: genes encoding anthocyanidin synthase, anthocyanidin reductase, and leucoanthocyanidin reductase” (BMC Plant Biology, 2013).

Target: T1, TcLAR (Theobroma cacao, UniProt D3XFG4)
T1 construct: gene LAR; full-length ORF (361 residues, 1,083 bp) in pET-21a, C-terminal 6xHis tag kept, E. coli Rosetta (DE3), purified by Magne-His
Assay: HPLC-UV and radioactivity detection of catechin product
Type: biochemical
Conditions: labelled compound (3H); 0.4 mM substrate, 0.5 mM NADPH, 100 mM potassium phosphate pH 7.0, 4 mM DTT, 10% glycerol, 30 C, 1 h

T1 sequence (D3XFG4 entry or part of it): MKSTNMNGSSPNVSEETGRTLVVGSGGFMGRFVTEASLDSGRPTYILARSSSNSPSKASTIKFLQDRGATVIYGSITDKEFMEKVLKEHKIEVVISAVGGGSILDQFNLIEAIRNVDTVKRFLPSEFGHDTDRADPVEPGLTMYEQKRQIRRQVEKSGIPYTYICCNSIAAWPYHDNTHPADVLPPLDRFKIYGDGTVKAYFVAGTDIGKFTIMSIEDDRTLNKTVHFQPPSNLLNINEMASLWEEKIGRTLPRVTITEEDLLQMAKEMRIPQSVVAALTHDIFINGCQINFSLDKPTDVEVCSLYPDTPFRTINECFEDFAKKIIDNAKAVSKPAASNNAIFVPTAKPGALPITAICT

## Oc1cc(O)c2c(c1)O[C@H](c1ccc(O)c(O)c1)[C@@H](O)[C@H]2O [leucocyanidin]
  HPLC-UV and radioactivity detection of catechin product: detected when TcLAR protein was incubated with ^3H -labeled leucocyanidin
